These results are taken from patent US20190192524A1, “Modulators of Caspase-6” (The University of British Columbia, priority 2014, published 2019).

One may read the IC50 as the concentration at which inhibition is half-maximal. The melting point is the temperature of the solid-liquid transition.

The target of data set [1] is T1, interaction between 1212AA Htt and caspase-6 (Homo sapiens, UniProt P55212).
T1 construct: DDK-tag (C); expressed in transfected cells; host or cells: COS-7
T1 sequence (P55212 with tags, fused parts or gaps): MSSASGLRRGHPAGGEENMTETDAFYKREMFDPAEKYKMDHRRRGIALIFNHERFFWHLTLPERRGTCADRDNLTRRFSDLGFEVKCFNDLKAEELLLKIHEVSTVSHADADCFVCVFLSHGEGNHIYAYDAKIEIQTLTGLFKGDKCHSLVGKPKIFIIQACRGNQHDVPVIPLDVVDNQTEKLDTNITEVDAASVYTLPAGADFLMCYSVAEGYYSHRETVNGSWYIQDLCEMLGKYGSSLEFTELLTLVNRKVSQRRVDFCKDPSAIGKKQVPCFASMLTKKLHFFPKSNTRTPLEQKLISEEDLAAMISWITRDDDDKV
The experiment in a line: Co-immunoprecipitation of Htt with caspase-6 antibody from COS-7 lysates. The format is cell-based. The following applies: 3 uM inhibitor, vs DMSO. Here is the method:
(§1) COS-7 cells were co-transfected with the 1212 amino acid HTT fragment (SEQ ID NO: 3) and the full length human caspase-6 enzyme (SEQ ID NO:4). The co-transfected cells were exposed to either 10 uM of the PG3d compound, 3 uM of the Q-VD-Oph pan-caspase inhibitor or were treated with DMSO as a control. An aliquot of the cell lysates were subjected to Western blotting to detect HTT fragments with the Htt antibody 2166 (Millipore) and the presence of caspase-6 was detected using the HD91 antibody (Ehrnhoefer et al, HMG, 2014. 23(3):717-29). The remaining cell lysates (500 ug protein) were immunoprecipitated with 5 ug of Caspase-6 antibody for 16 hrs at 4 C. The immunoprecipitated proteins were then applied to acrylamide gels and immunoblotted to detect either the HTT fragments or the presence of the active caspase 6 enzyme using the antibodies described above.
As expected, the DMSO control lysates reveal a variety of Htt fragments within the immunocomplexes, including 513AA fragment generated by caspase-3 cleavage, the full-length 1212AA Htt and the 586AA fragment generated by caspase-6 cleavage. When the cells are treated with the pan-caspase inhibitor Q-VD-OPh, the amount of Htt cleavage fragments interacting with caspase-6 is reduced and it is evident that caspase-6 is primarily interacting with the 1212 AA Htt.

The target of data set [2] is T2, full-length human caspase-6 (Homo sapiens, UniProt P55212).
T2 construct: DDK-tag (C); expressed in transfected cells; host or cells: COS-7
T2 sequence (P55212 with tags, fused parts or gaps): T1 sequence (P55212 with tags, fused parts or gaps)
Put plainly: Western blot of Htt fragments in COS-7 cells co-transfected with Htt 1-1212AA and full-length caspase-6. The format is cell-based. Conditions: 3 uM inhibitor, 24 hr, vs DMSO. As to the method: as §1
Cos-7 cells were co-transfected with Htt 1-1212AA (SEQ ID NO:3) and full-length human caspase-6 (SEQ ID NO:6), and exposed to either the pan-caspase inhibitor Q-VD-OPh, the PG3d compound or DMSO as a negative control. As shown in the upper panel of FIG. 9A, control cells that received DMSO alone (lanes labelled n.t.) show the presence of the Htt 1212AA protein and the Htt proteolytic cleavage fragments including the 586, 552 and 513 amino acid fragments. […]
(In general: A western blot detects proteins with antibodies after separation by electrophoresis.)

Data set [3] has as its target T3, human caspase 6 lacking the pro-domain (Homo sapiens, UniProt P55212).
T3 sequence (P55212 with tags, fused parts or gaps): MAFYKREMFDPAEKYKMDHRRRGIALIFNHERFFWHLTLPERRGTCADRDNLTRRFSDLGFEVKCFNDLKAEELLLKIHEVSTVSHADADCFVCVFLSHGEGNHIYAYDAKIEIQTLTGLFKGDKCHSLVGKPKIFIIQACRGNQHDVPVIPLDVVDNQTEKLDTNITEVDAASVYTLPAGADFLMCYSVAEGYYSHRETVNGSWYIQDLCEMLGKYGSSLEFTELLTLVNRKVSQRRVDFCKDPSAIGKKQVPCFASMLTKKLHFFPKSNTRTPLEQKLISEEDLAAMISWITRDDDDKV
The experiment in a line: Intracellular Htt cleavage by Western blot in co-transfected COS-7 cells. Conditions: 3 uM inhibitor. The format is cell-based. On the set-up: DDK-tag (C); expressed in transfected cells; host or cells: COS-7. Here is the method:
COS-7 cells were co-transfected with the 4c htt fragment and the human caspase-6 lacking the pro-domain which leads to fast autoactivation of the caspase-6 enzyme and the generation of the 586 aa Htt cleavage fragment. The co-transfected cells were exposed to either 10 uM of the PG3d compound, 3 uM of the Q-VD-Oph pan-caspase inhibitor or were left untreated. Non-transfected cells were included as a negative control and the purified 586 aa Htt fragment was included as a positive control. Cell lysates were subjected to Western blotting and the 586AA fragment generated intracellularly was detected with Htt antibody 2166 (Millipore). Caspase-6 expression and activation was assessed by Western blotting using antibody HD91 (Ehrnhoefer et al, HMG, 2014. 23(3):717-29).
COS-7 cells were co-transfected with the 4c htt fragment and the human caspase-6 lacking the pro-domain which leads to fast autoactivation of the caspase-6 enzyme and the generation of the 586 aa Htt cleavage fragment. […] Non-transfected cells were included as a negative control and the purified 586 aa Htt fragment was included as a positive control. […] The cell lysates were also assayed for the levels of active caspase 6 enzyme as shown in the lower panel of FIG. 5B.

Data set [4] concerns the target T4, recombinant caspase-6 (Homo sapiens, UniProt P55212).
T4 construct: purchased BioMol
T4 sequence (P55212 24-293): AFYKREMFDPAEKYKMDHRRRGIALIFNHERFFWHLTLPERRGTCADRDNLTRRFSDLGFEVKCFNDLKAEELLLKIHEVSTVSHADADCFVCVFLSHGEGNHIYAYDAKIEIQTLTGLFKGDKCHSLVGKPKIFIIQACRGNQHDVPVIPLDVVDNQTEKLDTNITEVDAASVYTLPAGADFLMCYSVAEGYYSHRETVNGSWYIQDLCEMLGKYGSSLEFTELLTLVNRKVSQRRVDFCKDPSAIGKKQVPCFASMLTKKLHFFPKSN
The experiment in a line: Simultaneous caspase-6 cleavage and 586 fragment detection by FRET. The format is biochemical. The following applies: cell-free; Htt substrate from COS-7 cell lysates. As to the method:
Different concentrations of the PG3 compounds were incubated with the Htt protein and the caspase-6 enzyme. The Htt substrate from COS-7 cell lysates is cleaved by caspase 6 and fragments are detected by FRET between the N-terminal BKP1 antibody and the neo-epitope antibody against amino acid 586.
COS-7 cells were grown in DMEM supplemented with 10% fetal bovine serum, 1%/penicillin/streptomycin and 0.5% glutamine. Transfections were performed using the Fugene reagent (Roche) according to manufacturer's instructions. The transfected DNA encodes amino acids 1-1212 of the human Htt protein with 15 glutamines and a C-terminal HA-tag, under control of a CMV promoter (Warby, 2008, supra; Wellington et al., 2000. J Biol Chem 275:19831-19838). The construct that was transfected is 4c Htt, which contains D→A mutations at amino acids 513, 530, 552 and […] (SEQ ID NO: 1). 24 h after transfection, cells were harvested by trypsinization, pellets washed in PBS and lysed by suspension in lysis buffer (50 mM Tris pH 8, 150 mM NaCl, 1% Igepal, supplemented with 1× complete protease inhibitor (Roche) and 4 mM Pefabloc). Lysates were incubated on ice for 10 min, vortexed and sonicated for 4 sec before centrifugation at 21,000×g for 10 min at 4° C. Supernatants were saved, protein concentration determined with the Biorad DC assay and stored at −80° C. until use.
Dilution series of cell lysates and caspase-6 (2.2× final concentration) were prepared in FRET cleavage buffer (10 mM HEPES pH 7.4, 100 mM NaCl, 0.05% gelatin, 0.1% CHAPS, 2 mM DTT) since this buffer was previously found to best stabilize caspase-6 in dilute form at room temperature. For negative controls, 22 μM zVAD-fmk was added to the caspase-6 dilutions.
Tb-labelled BKP1 antibody and D2-labelled 586 antibody (Cisbio) were diluted to 1 ng/μl (Tb) and 10 ng/μl (D2) in FRET cleavage buffer and pre-mixed at a 1:1 ratio.
In each well of a white 384 well plate (Nunc), 10 μl cell lysate were mixed with 10 μl caspase and 2 μl antibody mix, the plate was centrifuged briefly and incubated in the Victor 3 multilabel plate reader (Perkin Elmer) at 37° C. FRET was measured every 30 min for up to 2 h with the following settings: Excitation: 340 nm, Emission 1: 615 nm, Emission 2: 665 nm, 50 μs delay, 200 μs window time, 2000 μs cycle time. To obtain the final FRET signal, the ratio between Emission 2/Emission 1 (D2/Tb signal) was calculated. After 2 h at 37° C., the assay plate was sealed and after further incubation at 4° C. for 20 h, the FRET signal was read again.

In data set [5] the target is T3, human caspase 6 lacking the pro-domain. Put plainly: Lamin A cleavage in HEK 293 cells overexpressing caspase-6 (Mesoscale ELISA). Conditions: 24 hr incubation; cleaved lamin A quantified; read-out: HEK intracellular IC50. Also on record: The transfected DNA encodes amino acids 24-293 of the human caspase 6 enzyme with a C-terminal DDK tag; DDK-tag (C); expressed in transfected cells; host or cells: HEK 293. The format is cell-based. Here is the method:
HEK 293 cells were grown in DMEM supplemented with 10% fetal bovine serum, 1%/penicillin/streptomycin and 0.5% glutamine. Transfections were performed using the Fugene reagent (Roche) according to manufacturer's instructions. The transfected DNA encodes amino acids 24-293 of the human caspase 6 enzyme with a C-terminal DDK tag under the control of a CMV promoter (vector pCMVSport6) (SEQ ID NO: 2). The transfected HEK 293 were used to measure the intracellular activity of caspase-6 as evidenced by cleavage of the lamin substrate (described below).
The quantitative assessment of intracellular lamin cleavage in caspase-6 transfected HEK 293 cells was done as described previously (Ehrnhoefer et al. PLoS One, 2011. 6(11):e27680) Briefly, HEK 293 cell lysates were adjusted to 1 μg protein/μl in lysis buffer, diluted to 0.2 μg/μl in PBS and 5 μl were added to a Multi-Array high-bind 96 well plate (Mesoscale discovery). After incubation at room temperature for 1 h, the wells were blocked by adding 150 μl 5% BSA in PBS, followed by further incubation at room temperature for 1 h. Wells were then washed 3× with 150 μl PBS+0.05% Tween, and 25 μl antibody mix was added (Cell signaling #2036 at 1:100 dilution, Mesoscale discovery goat-anti-rabbit sulfo-tag at 1:500 dilution in PBS with 1% BSA). After lh incubation at room temperature, the wells were washed 3× with 150 μl PBS+0.05% Tween, and 150 μl/well 2× reading reagent (Mesoscale discovery) was added. The plate was read on a Sector imager 6000 (Mesoscale discovery).
The PG3 analog compounds were also tested for their ability to inhibit caspase-6 within cultured cells. HEK 293 cells were transfected with human caspase 6 lacking the pro-domain and were incubated with increasing concentrations of the PG3 analogs. After a 24 hr incubation, the excess compound was washed away, the cells were lysed and the amount of cleaved lamin A protein was quantified by the Mesoscale ELISA method.
(In general: An ELISA detects its analyte on a solid surface through an enzyme-linked reagent.)

Bounds are passed on as bounds.

On to `CC(C)[C@H](NC(=O)c1ccc2ccccc2n1)C(=O)N[C@@H](CC(=O)O)C(=O)COc1c(F)cccc1F` [Q-VD-Oph, reference compound], for which the “amount of Htt cleavage fragments interacting with caspase-6” value in data set [1] was “reduced”. For the same compound, the “amount of Htt cleavage fragments” value in data set [2] is reported as “reduction”. For the same compound, in data set [3], the “cleavage of the Htt protein to the 586 amino acid fragment” value is on record as “reduced cleavage” and the “level of active caspase-6 enzyme” value is “reduced level of active caspase-6 enzyme”.
For `CCc1c(O)nc(C#Cc2ccccc2)oc1=O` [PG-3b, 5-Ethyl-4-hydroxy-2-(phenylethynyl)-6H-1,3-oxazin-6-one], the melting point fell in the range of 177 to 178 °C. The IC50 in data set [4] was 8 µM. Besides, in data set [5], the IC50 came to 12.1 µM.
On the same counts, the results for `O=c1oc(C#Cc2ccccc2)nc(O)c1-c1ccccc1` [PG-3e, 4-Hydroxy-5-phenyl-2-(phenylethynyl)-6H-1,3-oxazin-6-one] are 187 to 189 °C, 3.9 µM and 2.5 µM.
On the same counts, the results for `O=c1oc(C#Cc2ccc(Cl)cc2)nc(O)c1-c1ccccc1` [PG-3g, 2-[(4-Chlorophenyl)ethynyl]-4-hydroxy-5-phenyl-6H-1,3-oxazin-6-one] are 185 to 187 °C (dec.), 7.5 µM and 3.9 µM.
For `Cc1c(O)nc(C#Cc2ccccc2)oc1=O` [PG-3a, 4-Hydroxy-5-methyl-2-(phenylethynyl)-6H-1,3-oxazin-6-one] the same measures were 184 to 186 °C, 8.2 µM and over 15 µM.
`CC(C)c1c(O)nc(C#Cc2ccccc2)oc1=O` [PG-3c, 4-Hydroxy-5-isopropyl-2-(phenylethynyl)-6H-1,3-oxazin-6-one] showed a melting point of 202 to 203 °C. In data set [4], the IC50 was found to be 12.2 µM. For the same compound, the IC50 in data set [5] was over 15 µM.
On to `O=C(C#Cc1ccccc1)NC(=O)Cc1ccccc1` [PG-3h, 3-Phenyl-N-(phenylacetyl)prop-2-ynamide], for which the IC50 in data set [4] came to 8.1 µM; in data set [5], 4.8 µM.
With `Cc1c(O)nc(C#Cc2ccccc2Cl)oc1=O` [PG-3f, 2-[(2-Chlorophenyl)ethynyl]-4-hydroxy-5-methyl-6H-1,3-oxazin-6-one], the melting point lay in the range of 175 to 178 °C. The IC50 in data set [4] was 57.3 µM.
For `CCCCc1c(O)nc(C#Cc2ccccc2)oc1=O` [PG-3, 5-Butyl-4-hydroxy-2-(phenylethynyl)-6H-1,3-oxazin-6-one] the same measures were 157 to 159 °C and 13.8 µM.
